Species: Rattus norvegicus
Test: Open TG-GATES - Regimen: Single
Assay type: toxicity, organism-based, Sprague-Dawley
Parameters: regimen Single, gender Male, age 6 weeks
Settings: in vivo, po, 0 mg/kg, route gavage, dose level Control; for Bas / Eos / Fbg / Hb / Ht / Lym / MCH / MCHC / Mono / Neu / PT / Plat / RBC / Ret / WBC: tissue Blood; for KIDNEY_L / KIDNEY_R / KIDNEY_TOTAL: tissue Kidney; for LIVER: tissue Liver; for ALP / ALT / AST / BUN / CRE / Ca / DBIL / IP / K / LDH / Na / PL / RALB / TBIL / TC / TG / TP / gamma-GTP: tissue Plasma

CCC(C)(C)C(=O)O[C@H]1C[C@@H](C)C=C2C=C[C@H](C)[C@H](CC[C@@H]3C[C@@H](O)CC(=O)O3)[C@H]21 [SIMVASTATIN]
TERMINAL_BW (3 h): 203.4 g
Bas (3 h): 0%
Eos (3 h): 1%
Fbg (3 h): 216.8 mg/dL
Hb (3 h): 12.9 g/dL
Ht (3 h): 39.1%
Lym (3 h): 83.6%
MCH (3 h): 21.5 pg
MCHC (3 h): 32.8%
Mono (3 h): 6%
Neu (3 h): 9.6%
PT (3 h): 11 s
Plat (3 h): 101.5 x10_4/uL
RBC (3 h): 596.2 x10_4/ul
Ret (3 h): 7.8%
WBC (3 h): 114.1 x10_2/uL
KIDNEY_L (3 h): 0.9 g
KIDNEY_R (3 h): 1 g
KIDNEY_TOTAL (3 h): 1.9 g
LIVER (3 h): 9.7 g
ALP (3 h): 839.8 IU/L
ALT (3 h): 35.4 IU/L
AST (3 h): 61.6 IU/L
BUN (3 h): 14.4 mg/dL
CRE (3 h): 0.6 mg/dL
Ca (3 h): 11 mg/dL
DBIL (3 h): 0.02 mg/dL
IP (3 h): 9.1 mg/dL
K (3 h): 4.4 meq/L
LDH (3 h): 82.2 IU/L
Na (3 h): 138.8 meq/L
PL (3 h): 147.4 mg/dL
RALB (3 h): 3.5 g/dL
TBIL (3 h): 0.4 mg/dL
TC (3 h): 83.8 mg/dL
TG (3 h): 63.6 mg/dL
TP (3 h): 5.6 g/dL
gamma-GTP (3 h): 1.6 IU/L
TERMINAL_BW (6 h): 199.1 g
Bas (6 h): 0%
Eos (6 h): 1%
Fbg (6 h): 208.2 mg/dL
Hb (6 h): 13 g/dL
Ht (6 h): 39.5%
Lym (6 h): 79.8%
MCH (6 h): 21.8 pg
MCHC (6 h): 32.8%
Mono (6 h): 6.2%
Neu (6 h): 13%
PT (6 h): 11.8 s
Plat (6 h): 111.5 x10_4/uL
RBC (6 h): 597.2 x10_4/ul
Ret (6 h): 9.2%
WBC (6 h): 109.4 x10_2/uL
KIDNEY_L (6 h): 0.9 g
KIDNEY_R (6 h): 0.9 g
KIDNEY_TOTAL (6 h): 1.7 g
LIVER (6 h): 8.5 g
ALP (6 h): 648 IU/L
ALT (6 h): 29 IU/L
AST (6 h): 60.4 IU/L
CRE (6 h): 0.5 mg/dL
Ca (6 h): 10.8 mg/dL
DBIL (6 h): 0.046 mg/dL
IP (6 h): 9.4 mg/dL
K (6 h): 4.5 meq/L
LDH (6 h): 77 IU/L
Na (6 h): 137.8 meq/L
PL (6 h): 120.4 mg/dL
RALB (6 h): 3.6 g/dL
TBIL (6 h): 0.4 mg/dL
TC (6 h): 70.6 mg/dL
TG (6 h): 47.8 mg/dL
TP (6 h): 5.5 g/dL
gamma-GTP (6 h): 1 IU/L
TERMINAL_BW (9 h): 197.5 g
Bas (9 h): 0%
Eos (9 h): 1%
Fbg (9 h): 215.2 mg/dL
Hb (9 h): 13.2 g/dL
Ht (9 h): 40.2%
Lym (9 h): 85.6%
MCHC (9 h): 32.9%
Mono (9 h): 5.4%
Neu (9 h): 8.2%
PT (9 h): 11.7 s
Plat (9 h): 114.5 x10_4/uL
RBC (9 h): 605.4 x10_4/ul
Ret (9 h): 10.2%
WBC (9 h): 96.4 x10_2/uL
KIDNEY_L (9 h): 0.9 g
KIDNEY_R (9 h): 0.9 g
KIDNEY_TOTAL (9 h): 1.8 g
LIVER (9 h): 8.4 g
ALP (9 h): 810.4 IU/L
ALT (9 h): 29.2 IU/L
AST (9 h): 58.4 IU/L
BUN (9 h): 12.2 mg/dL
CRE (9 h): 0.6 mg/dL
Ca (9 h): 10.9 mg/dL
DBIL (9 h): 0.04 mg/dL
IP (9 h): 10.9 mg/dL
K (9 h): 4.6 meq/L
LDH (9 h): 68.2 IU/L
Na (9 h): 137.6 meq/L
PL (9 h): 110.8 mg/dL
RALB (9 h): 3.7 g/dL
TBIL (9 h): 0.4 mg/dL
TC (9 h): 61.8 mg/dL
TG (9 h): 34.2 mg/dL
TP (9 h): 5.2 g/dL
gamma-GTP (9 h): 1.8 IU/L
TERMINAL_BW (24 h): 215.6 g
Bas (24 h): 0%
Eos (24 h): 1%
Fbg (24 h): 222.6 mg/dL
Hb (24 h): 13 g/dL
Ht (24 h): 40.1%
Lym (24 h): 82.8%
MCHC (24 h): 32.5%
Mono (24 h): 8.2%
Neu (24 h): 8.4%
Plat (24 h): 113.8 x10_4/uL
RBC (24 h): 614 x10_4/ul
Ret (24 h): 9.5%
KIDNEY_L (24 h): 1 g
KIDNEY_R (24 h): 1 g
KIDNEY_TOTAL (24 h): 2 g
ALP (24 h): 887.6 IU/L
ALT (24 h): 38.8 IU/L
AST (24 h): 65 IU/L
BUN (24 h): 18.6 mg/dL
CRE (24 h): 0.6 mg/dL
Ca (24 h): 10.8 mg/dL
DBIL (24 h): 0.05 mg/dL
IP (24 h): 8 mg/dL
K (24 h): 4.6 meq/L
LDH (24 h): 97.8 IU/L
Na (24 h): 139.4 meq/L
PL (24 h): 144.8 mg/dL
RALB (24 h): 3.7 g/dL
TBIL (24 h): 0.4 mg/dL
TC (24 h): 79.6 mg/dL
